Assay results taken from publication PMC8836832, “Novel Aurora A Kinase Inhibitor Fangchinoline Enhances Cisplatin–DNA Adducts and Cisplatin Therapeutic Efficacy in OVCAR-3 Ovarian Cancer Cells-Derived Xenograft Model” (International Journal of Molecular Sciences, 2022).
Where a name gives a salt, the structure may show the parent alone.

Columns and labels:
MDH2774 = assay: cells; set-up: MTT cell viability assay, absorbance at 575 nm, MDAH 2774 cells; settings: Homo sapiens, MDAH 2774, 48 h
Method: (§1) The cell viability effects of 12 candidate compounds were evaluated by MTT assay and compared against a control group (medium containing 0.1% DMSO). The cells were seeded in 96-well plates and pre-cultured for 24 h (1 × 10^5 cells/well). The cells were then incubated for 48 h with the 12 identified compounds (at 0, 3.125, 6.25, 12.5, 25, 50, or 100 µM) dissolved in 0.1% DMSO. After 48 h, MTT solution (2.5 mg/mL in DMEM) was added to the cells and incubated for 1 h. DMSO was added to dissolve the purple crystals, and the absorbance values were measured at 575 nm using a spectrophotometer (SPECTROstar Nano; BMG LABTECH, Offenburg, Germany). Each treatment group has four biological replicates (n = 4). The IC50 values for each compound in each cell line were obtained using the results of the MTT assay and calculated using the GraphPad Prism 6 program (GraphPad Software, Inc., San Diego, CA, USA). A CI higher than 1.0 indicates an antagonistic effect, a CI equal to 1.0 indicates an additive effect, and a CI lower than 1.0 indicates a synergistic effect.

SKOV3 = assay: cells; set-up: MTT cell viability assay, absorbance at 575 nm, SK-OV-3 cells; settings: Homo sapiens, SK-OV-3, 48 h
Method: as §1

ES2 = assay: cells; set-up: MTT cell viability assay, absorbance at 575 nm, ES-2 cells; settings: Homo sapiens, ES-2, 48 h
Method: as §1

OVCAR3 = assay: cells; set-up: MTT cell viability assay, absorbance at 575 nm, OVCAR-3 cells; settings: Homo sapiens, OVCAR-3, 48 h
Method: as §1

[1] = target: T1, Aurora A kinase (Aurora A) (Homo sapiens, UniProt O14965); assay: in vitro Aurora A kinase assay kit (Promega V1931, luminescence), dose-dependent at […]; supported by CETSA in MDAH […] and OVCAR-3 cells; type: biochemical
T1 construct: gene AURKA
T1 sequence (O14965 1-403): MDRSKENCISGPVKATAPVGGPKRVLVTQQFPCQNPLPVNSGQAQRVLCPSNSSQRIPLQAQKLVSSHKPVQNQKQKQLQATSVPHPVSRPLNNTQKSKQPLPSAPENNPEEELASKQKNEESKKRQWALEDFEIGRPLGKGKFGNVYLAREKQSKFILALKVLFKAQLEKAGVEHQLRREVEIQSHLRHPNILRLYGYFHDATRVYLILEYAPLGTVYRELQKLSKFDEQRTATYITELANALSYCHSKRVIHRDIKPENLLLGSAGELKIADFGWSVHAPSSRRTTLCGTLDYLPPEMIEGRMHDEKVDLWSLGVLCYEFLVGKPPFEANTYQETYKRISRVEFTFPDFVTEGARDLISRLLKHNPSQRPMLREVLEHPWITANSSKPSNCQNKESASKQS

SMILES | IC50 (MDH2774) [µM] | IC50 (SKOV3) [µM] | IC50 (ES2) [µM] | IC50 (OVCAR3) [µM] | in vitro Aurora A kinase assay kit (Promega V1931, luminescence), dose-dependent [1]
O=c1cc(-c2ccc(O)c(-c3c(O)cc(O)c4c(=O)cc(-c5ccc(O)cc5)oc34)c2)oc2cc(O)cc(O)c12 [Amentoflavone] | 99.32 ± 0.03 | 78.9 ± 0.8 | – | – | –
COc1ccc2cc3[n+](cc2c1OC)CCc1cc2c(cc1-3)OCO2 [Berberine] | 12.8 ± 1.24 | 39.38 ± 0.02 | 87.6 ± 0.02 | 20.56 ± 0.021 | –
O=C(/C=C/c1ccc(O)cc1)CC(=O)/C=C/c1ccc(O)cc1 [Bisdemethoxycurcumin] | 26 ± 0.53 | 25.1 ± 1.9 | 45.5 ± 0.5 | 24.9 ± 0.74 | –
C/C=C(\C)C(=O)N[C@@H](c1ccccc1)[C@@H](O)C(=O)O[C@H]1C[C@@]2(O)[C@@H](OC(=O)c3ccccc3)[C@@H]3[C@]4(OC(C)=O)CO[C@@H]4C[C@H](O)[C@@]3(C)C(=O)[C@H](OC(C)=O)C(=C1C)C2(C)C [Cephalomannine] | 41.72 ± 0.01 | 10.79 ± 0.01 | – | 41.78 ± 0.013 | –
CC(=O)O[C@@]12CO[C@@H]1C[C@H](O)[C@@]1(C)C(=O)[C@H](O)C3=C(C)[C@@H](OC(=O)[C@H](O)[C@@H](NC(=O)OC(C)(C)C)c4ccccc4)C[C@@](O)([C@@H](OC(=O)c4ccccc4)[C@H]21)C3(C)C [Docetaxel] | 24.55 ± 0.011 | 21.48 ± 0.01 | 50.38 ± 0.25 | 40.59 ± 0.015 | –
Cc1cc(O)c2c(c1)C(=O)c1cc(O)cc(O)c1C2=O [Emodin] | 34.32 ± 0.021 | 34.7 ± 0.02 | 50.2 ± 2.09 | 22.64 ± 0.03 | –
O=C(/C=C/c1ccc(O)cc1)c1ccc(O)cc1O [Isoliquiritigenin] | 50.36 ± 0.48 | 26 ± 0.44 | 51.46 ± 0.32 | 25.8 ± 1.21 | –
COc1cc2c(cc1OC)-c1cc3ccc(OC)c(OC)c3c[n+]1CC2 [Palmatine hydrochloride] | 51.29 ± 0.34 | 59.33 ± 0.02 | – | – | –
CN1CCc2cc3c(cc2C(=O)Cc2cc4c(cc2C1)OCO4)OCO3 [Protopine] | – | 26.1 ± 0.49 | – | 25.4 ± 0.68 | –
O=C(O)c1cc(O)c2c(c1)[C@@H]([C@H]1c3cc(C(=O)O)cc(O)c3C(=O)c3c(O[C@@H]4O[C@H](CO)[C@@H](O)[C@H](O)[C@H]4O)cccc31)c1cccc(O[C@@H]3O[C@H](CO)[C@@H](O)[C@H](O)[C@H]3O)c1C2=O [Sennoside B] | – | > 100 | – | – | –
COc1ccc2cc1Oc1ccc(cc1)C[C@H]1c3cc(c(OC)cc3CCN1C)Oc1c(O)c(OC)cc3c1[C@H](C2)N(C)CC3 [fangchinoline] | 8.71 ± 0.24 | 11.7 ± 1.2 | 25.1 ± 0.65 | 9.66 ± 0.3 | Figure 2C shows that fangchinoline treatment significantly decreased Aurora A enzymatic activity in a dose-dependent manner.
